Earlier results on 1 compound are cited in US20200338012A1 (TAHO Pharmaceuticals Ltd., priority 2019, published 2020).

Converted amounts (≈) assume the structure as drawn.

For data set [1] the following is noted: oral tablet.

As for `COc1ccc(-n2nc(C(N)=O)c3c2C(=O)N(c2ccc(N4CCCCC4=O)cc2)CC3)cc1` [apixaban, Apixaban], the water solubility is 0.0679 mg/mL (≈ 148 µM). Also, the bioavailability (as a rule, dose-corrected exposure relative to a reference, in per cent) in data set [1] is recorded as 50%.
